Where a name gives a salt, the structure may show the parent alone.

The target of the experiment is T1, epithelial sodium channel (ENaC) (Homo sapiens, UniProt P37088+P51168+P51170).
T1 construct: host or cells: primary human bronchial epithelial cells (HBECs), differentiated at the air-liquid interface
T1 sequence (P37088 1-669): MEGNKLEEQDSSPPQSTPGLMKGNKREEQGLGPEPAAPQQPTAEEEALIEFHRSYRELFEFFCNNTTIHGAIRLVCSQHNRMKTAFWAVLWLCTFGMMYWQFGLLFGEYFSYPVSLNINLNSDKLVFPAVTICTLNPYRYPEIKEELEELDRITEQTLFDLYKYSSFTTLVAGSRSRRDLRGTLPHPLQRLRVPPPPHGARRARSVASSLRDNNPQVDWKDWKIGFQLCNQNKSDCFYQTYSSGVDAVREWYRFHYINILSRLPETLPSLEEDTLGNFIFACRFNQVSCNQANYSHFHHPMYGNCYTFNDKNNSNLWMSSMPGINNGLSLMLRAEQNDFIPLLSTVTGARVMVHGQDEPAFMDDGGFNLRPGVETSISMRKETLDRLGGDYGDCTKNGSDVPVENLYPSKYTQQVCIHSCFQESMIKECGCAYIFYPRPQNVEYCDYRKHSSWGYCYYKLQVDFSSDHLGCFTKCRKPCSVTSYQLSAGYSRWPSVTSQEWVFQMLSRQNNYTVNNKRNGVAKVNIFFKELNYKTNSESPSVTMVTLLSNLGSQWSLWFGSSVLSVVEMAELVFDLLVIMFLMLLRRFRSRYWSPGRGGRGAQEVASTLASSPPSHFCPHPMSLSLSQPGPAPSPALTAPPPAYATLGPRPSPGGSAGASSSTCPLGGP
T1 sequence (P51168 1-640): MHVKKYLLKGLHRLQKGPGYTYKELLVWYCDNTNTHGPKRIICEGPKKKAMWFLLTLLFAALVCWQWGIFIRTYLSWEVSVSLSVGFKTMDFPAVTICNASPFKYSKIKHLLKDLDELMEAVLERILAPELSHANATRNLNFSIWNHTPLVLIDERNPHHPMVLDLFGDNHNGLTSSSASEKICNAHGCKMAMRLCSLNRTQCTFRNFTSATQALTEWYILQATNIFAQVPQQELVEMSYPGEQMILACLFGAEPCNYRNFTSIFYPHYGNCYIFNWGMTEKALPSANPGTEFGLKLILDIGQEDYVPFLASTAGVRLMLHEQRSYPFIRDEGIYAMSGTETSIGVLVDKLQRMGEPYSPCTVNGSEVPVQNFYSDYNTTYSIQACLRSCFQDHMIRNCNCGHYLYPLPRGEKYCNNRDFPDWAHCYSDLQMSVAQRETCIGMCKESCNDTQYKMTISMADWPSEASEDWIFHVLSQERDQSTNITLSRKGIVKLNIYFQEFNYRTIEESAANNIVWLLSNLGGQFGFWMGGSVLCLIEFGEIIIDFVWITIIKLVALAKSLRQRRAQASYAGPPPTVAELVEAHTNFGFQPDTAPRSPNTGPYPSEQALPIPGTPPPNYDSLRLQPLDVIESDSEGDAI
T1 sequence (P51170 1-649): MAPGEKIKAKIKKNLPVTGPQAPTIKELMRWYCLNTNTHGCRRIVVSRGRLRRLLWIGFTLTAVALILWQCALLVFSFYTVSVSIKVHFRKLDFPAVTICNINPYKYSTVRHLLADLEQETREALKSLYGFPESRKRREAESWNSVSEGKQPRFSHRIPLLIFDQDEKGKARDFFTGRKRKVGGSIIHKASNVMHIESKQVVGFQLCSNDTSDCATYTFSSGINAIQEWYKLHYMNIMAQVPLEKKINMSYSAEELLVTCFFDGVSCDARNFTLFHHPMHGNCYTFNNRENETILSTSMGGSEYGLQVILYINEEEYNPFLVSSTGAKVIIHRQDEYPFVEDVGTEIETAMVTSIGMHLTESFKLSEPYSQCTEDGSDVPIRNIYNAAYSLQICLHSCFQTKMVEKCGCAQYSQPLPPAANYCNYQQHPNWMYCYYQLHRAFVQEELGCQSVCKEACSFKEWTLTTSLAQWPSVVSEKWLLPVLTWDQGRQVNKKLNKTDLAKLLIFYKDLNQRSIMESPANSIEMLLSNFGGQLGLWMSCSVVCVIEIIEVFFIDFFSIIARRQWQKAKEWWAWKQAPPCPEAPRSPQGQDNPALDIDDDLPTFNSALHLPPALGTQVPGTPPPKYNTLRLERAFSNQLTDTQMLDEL
Description: Short circuit current (ISC) measurements in human bronchial epithelial cells, inhibition of amiloride-sensitive ISC. The experiment is classed as cell-based. The conditions noted are these: inhibition of the amiloride-sensitive ISC; HBECs cultured at air-liquid interface, Ussing chamber, compound added to apical chamber.

Regarding `COC(=O)COc1ccc(CCC[N+](C)(C)CCNC(=O)c2nc(Cl)c(N)nc2N)cc1` [Example 132, {2-[(3,5-Diamino-6-chloro-pyrazine-2-carbonyl)-amino]-ethyl}-[3-(4-methoxycarbonylmethoxy-phenyl)-propyl]-dimethyl-ammonium trifluoroacetate], the half-inhibitory concentration (IC50) (commonly the concentration that inhibits the measured activity by half) amounted to 1.49 µM.

In the case of `C[N+](C)(CCCc1ccc(OCC(=O)O)cc1)CCNC(=O)c1nc(Cl)c(N)nc1N` [Example 133, [3-(4-Carboxymethoxy-phenyl)-propyl]-{2-[(3,5-diamino-6-chloro-pyrazine-2-carbonyl)-amino]-ethyl}-dimethyl-ammonium trifluoroacetate], the half-inhibitory concentration (IC50) is 6.52 µM.

Values taken from patent US8236808B2, “Pyrazine derivatives as ENAC blockers” (Novartis AG, priority 2008, dated 2012).
